Patent US12239632B2, “Asymmetric allyl tryptamines” (Alexander Shulgin Research Institute, Inc., priority 2021, dated 2025)
Structures can show the parent of a compound that is named as a salt.

Legend:
[1] = biological target: T1, SERT (Homo sapiens, UniProt P31645); experiment: cell-based; conditions: blocker mode; read-out: EC50/IC50, SERT (Blocker)
T1 construct: expressed in transfected cells
Experimental: (§1) Methods—Monoamine Transporter Assay: Neurotransmitter uptake via transporters was measured using the Neurotransmitter Transporter Uptake Assay Kit from Molecular Devices. […] Increased intracellular fluorescence intensity following uptake of biogenic amine neurotransmitters via transporters is measured and can be run in a kinetic or endpoint mode.
(§2) Compound was added and the mixture was incubated. Following compound incubation, dye was added to the wells and the plate was re-incubated. Microplates were then transferred to a PerkinElmer Envision™ instrument for fluorescence signal detection.
(§3) Compound activity was analyzed using CBIS data analysis (ChemInnovation, CA). For blocker mode assays, percentage inhibition was calculated using the following formula: % Inhibition=100%×(1−(mean RLU of test sample−mean RLU of vehicle control)/(mean RLU of positive control−mean RLU of vehicle control)).

[2] = biological target: T2, ADRA1A (Homo sapiens, UniProt P35348); experiment: In vitro functional activity, ADRA1A antagonist mode; assay type: cell-based
T2 construct: expressed in transfected cells
T2 sequence (P35348 1-466): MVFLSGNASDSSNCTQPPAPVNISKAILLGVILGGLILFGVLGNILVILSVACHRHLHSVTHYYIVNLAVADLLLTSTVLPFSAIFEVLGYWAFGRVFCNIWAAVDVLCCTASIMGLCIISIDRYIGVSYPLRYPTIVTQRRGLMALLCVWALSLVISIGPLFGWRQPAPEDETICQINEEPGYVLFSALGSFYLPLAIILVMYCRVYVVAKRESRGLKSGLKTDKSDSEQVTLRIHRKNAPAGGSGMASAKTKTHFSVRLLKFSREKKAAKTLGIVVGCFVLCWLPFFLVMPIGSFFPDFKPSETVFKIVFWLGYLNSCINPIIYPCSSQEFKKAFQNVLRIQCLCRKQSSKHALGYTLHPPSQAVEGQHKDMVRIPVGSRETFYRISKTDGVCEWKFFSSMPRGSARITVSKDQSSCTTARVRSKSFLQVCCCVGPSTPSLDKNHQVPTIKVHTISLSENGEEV
Experimental: (§4) The assay monitors the activation of a GPCR via Gi and Gs secondary messenger signaling, using ß-Gal as a functional reporter. […] To determine Gi/Gs agonism, media was aspirated from cells and replaced with 15 μL 2:1 HBSS/10 mM HEPES:cAMP XS+Ab reagent. Concentrated (4×) test compound in assay buffer was added to cells and incubated at 37° C. or room temperature for 30 or 60 minutes. For Gi agonist activation, cells were incubated with EC80 forskolin in addition to a test compound. Vehicle concentration was 1%.

[3] = biological target: T3, HTR2B (Homo sapiens, UniProt P41595); experiment: Calcium mobilization assay, HTR2B agonist mode; assay type: cell-based
T3 construct: expressed in transfected cells
T3 sequence (P41595 whole entry): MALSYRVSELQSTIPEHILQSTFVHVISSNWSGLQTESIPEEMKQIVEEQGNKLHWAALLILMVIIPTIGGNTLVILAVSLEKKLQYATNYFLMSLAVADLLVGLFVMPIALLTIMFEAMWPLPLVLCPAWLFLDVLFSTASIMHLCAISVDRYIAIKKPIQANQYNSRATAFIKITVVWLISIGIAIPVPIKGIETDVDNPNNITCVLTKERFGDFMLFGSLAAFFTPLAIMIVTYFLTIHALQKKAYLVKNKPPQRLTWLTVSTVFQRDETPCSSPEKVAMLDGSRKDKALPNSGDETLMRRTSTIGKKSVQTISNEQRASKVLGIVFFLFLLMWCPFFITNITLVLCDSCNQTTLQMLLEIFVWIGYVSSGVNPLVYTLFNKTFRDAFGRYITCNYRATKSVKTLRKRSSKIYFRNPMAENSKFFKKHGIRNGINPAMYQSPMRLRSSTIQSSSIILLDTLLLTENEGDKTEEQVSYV
Experimental: (§5) Compound activity was analyzed using CBIS data analysis suite (ChemInnovation, CA). For agonist mode assays, percentage activity was calculated using the following formula: % Activity=100%×(mean RFU of test sample−mean RFU of vehicle control)/(mean MAX RFU control ligand −mean RFU of vehicle control).

[4] = biological target: T4, HRH1 (Homo sapiens, UniProt P35367); experiment: cell-based; assay type: cell-based; conditions: antagonist mode; for IC50: read-out: EC50/IC50, HRH1 (Antagonist)
T4 construct: expressed in transfected cells
T4 sequence (P35367 whole entry): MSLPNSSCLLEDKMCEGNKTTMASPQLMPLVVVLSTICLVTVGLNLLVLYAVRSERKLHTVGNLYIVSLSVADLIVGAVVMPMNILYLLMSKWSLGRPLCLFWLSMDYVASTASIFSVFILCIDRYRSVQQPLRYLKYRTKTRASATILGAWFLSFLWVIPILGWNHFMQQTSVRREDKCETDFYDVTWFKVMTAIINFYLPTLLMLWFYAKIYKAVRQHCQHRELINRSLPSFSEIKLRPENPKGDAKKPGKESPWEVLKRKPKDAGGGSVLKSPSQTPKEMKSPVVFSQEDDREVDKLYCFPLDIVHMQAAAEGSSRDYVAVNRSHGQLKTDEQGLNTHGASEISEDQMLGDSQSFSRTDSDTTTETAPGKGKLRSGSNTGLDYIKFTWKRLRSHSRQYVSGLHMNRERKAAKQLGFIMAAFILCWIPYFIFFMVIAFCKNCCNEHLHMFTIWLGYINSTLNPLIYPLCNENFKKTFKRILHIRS
Experimental: (§6) Such activity was determined to assess potential neuromodulatory activity and safety liabilities.

[5] = biological target: T5, HTR1A (Homo sapiens, UniProt P08908); experiment: In vitro functional activity, HTR1A agonist mode; assay type: cell-based
T5 construct: expressed in transfected cells
T5 sequence (P08908 1-422): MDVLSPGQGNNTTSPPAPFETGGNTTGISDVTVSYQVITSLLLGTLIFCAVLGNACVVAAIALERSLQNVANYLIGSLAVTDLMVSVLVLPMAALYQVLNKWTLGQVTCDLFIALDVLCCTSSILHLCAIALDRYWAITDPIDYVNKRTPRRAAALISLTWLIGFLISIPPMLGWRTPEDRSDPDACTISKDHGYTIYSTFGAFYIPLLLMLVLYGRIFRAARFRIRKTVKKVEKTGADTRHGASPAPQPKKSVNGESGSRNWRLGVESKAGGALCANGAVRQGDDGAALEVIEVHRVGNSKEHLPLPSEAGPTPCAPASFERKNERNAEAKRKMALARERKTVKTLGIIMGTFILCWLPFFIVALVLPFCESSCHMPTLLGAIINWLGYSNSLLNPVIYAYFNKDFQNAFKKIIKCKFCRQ
Experimental: as §6

[6] = biological target: T6, HTR1B (Homo sapiens, UniProt P28222); experiment: In vitro functional activity, HTR1B agonist mode; assay type: cell-based
T6 construct: expressed in transfected cells
Experimental: as §6

[7] = biological target: T7, DAT (Homo sapiens, UniProt Q01959); experiment: Neurotransmitter transporter uptake assay, DAT blocker mode; assay type: cell-based
T7 construct: expressed in transfected cells
Experimental: as §1, §2, §3

[8] = biological target: T8, HTR6 (Homo sapiens, UniProt P50406); experiment: PathHunter beta-Arrestin assay, HTR6 agonist mode; assay type: cell-based
T8 construct: expressed in transfected cells
T8 sequence (P50406 whole entry): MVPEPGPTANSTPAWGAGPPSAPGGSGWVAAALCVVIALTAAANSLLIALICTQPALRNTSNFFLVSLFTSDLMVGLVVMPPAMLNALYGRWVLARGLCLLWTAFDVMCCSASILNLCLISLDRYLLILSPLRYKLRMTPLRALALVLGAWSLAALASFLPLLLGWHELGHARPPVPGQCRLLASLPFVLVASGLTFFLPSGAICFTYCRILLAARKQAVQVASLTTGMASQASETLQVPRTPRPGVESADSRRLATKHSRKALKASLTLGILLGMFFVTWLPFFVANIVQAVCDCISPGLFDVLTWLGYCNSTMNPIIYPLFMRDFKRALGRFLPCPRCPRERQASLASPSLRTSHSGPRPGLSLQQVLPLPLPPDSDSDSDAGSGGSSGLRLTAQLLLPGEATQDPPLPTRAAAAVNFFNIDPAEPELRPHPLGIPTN
Experimental: The assay monitors restoration of ß-galactosidase (β-Gal) as a marker of GPCR activation and recruitment of β-Arrestin to the receptor.
3.5 μL of concentrated sample was added to cells and incubated at 37° C. or room temperature for 90 to 180 minutes. Vehicle concentration was 1%.
Assay signal was generated through a single addition of 50% v/v of PathHunter Detection reagent cocktail, followed by a one hour incubation at room temperature. Microplates were read following signal generation with a plate reader set to detect chemiluminescent signals. Compound activity was analyzed using CBIS data analysis suite (ChemInnovation, CA).

[9] = biological target: T9, CAV1.2 (Homo sapiens, UniProt Q13936); experiment: FLIPR membrane potential ion channel assay, CAV1.2 blocker; assay type: cell-based
T9 construct: expressed in transfected cells
Experimental: (§7) Methods—Ion Channel Assay: Membrane potential changes were measured using the FLIPR® Membrane potential Assay Kit. A fluorescent indicator dye in combination with a quencher was used to reflect real-time membrane potential changes associated with ion channel activation and ion transporter proteins. Calcium channel CAV1.2, potassium channel hERG, and sodium channel NAV1.5 were tested.
(§8) To determine agonist and antagonist activity, cell lines were expanded from freezer stocks, seeded into multi-well microplates, and incubated at 37° C. Cells were then loaded with dye and incubated again.
(§9) For agonist determination, cells were incubated with the sample a different dilutions to induce a response. For antagonist determination, cells were pre-incubated with the sample at different dilutions. Following dye administration, the sample was added to the cells in the presence of EC80 agonist and then re-incubated at room temperature in the dark.
(§10) For antagonist mode assays, percentage inhibition was calculated using the following formula: % Inhibition=100%×(1−(mean RLU of test sample−mean RLU of vehicle control)/(mean RLU of EC80 control−mean RLU of vehicle control)).

[10] = biological target: T10, HTR2A (Homo sapiens, UniProt P28223); experiment: Calcium mobilization assay, HTR2A antagonist mode; assay type: cell-based
T10 construct: expressed in transfected cells
T10 sequence (P28223 whole entry): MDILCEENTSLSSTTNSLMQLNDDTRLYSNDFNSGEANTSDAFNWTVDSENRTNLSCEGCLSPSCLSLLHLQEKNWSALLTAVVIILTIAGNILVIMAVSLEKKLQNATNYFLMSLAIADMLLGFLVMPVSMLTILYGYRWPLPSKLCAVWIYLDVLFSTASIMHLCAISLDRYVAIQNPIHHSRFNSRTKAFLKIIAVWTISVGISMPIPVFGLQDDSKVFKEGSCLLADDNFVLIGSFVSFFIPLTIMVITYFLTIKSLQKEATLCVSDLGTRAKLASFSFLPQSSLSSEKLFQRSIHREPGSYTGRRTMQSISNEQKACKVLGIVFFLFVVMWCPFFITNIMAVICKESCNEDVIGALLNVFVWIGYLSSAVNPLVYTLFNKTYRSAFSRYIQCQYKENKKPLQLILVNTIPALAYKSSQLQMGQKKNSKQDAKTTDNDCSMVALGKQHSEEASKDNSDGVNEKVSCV
Experimental: Cell lines were expanded from freezer stocks and seeded into multi-well microplates. Then, the plates were incubated at 37° C. for an appropriate amount of time and loaded with Dye Loading buffer. […] Activity was measured on a FLIPR Tetra. Calcium mobilization was monitored for 2 minutes.

[11] = biological target: T11, MAOA (Homo sapiens, UniProt P21397); experiment: MAO-A enzyme assay (kynuramine substrate); assay type: biochemical
T11 construct: purchased Sigma
T11 sequence (P21397 1-527): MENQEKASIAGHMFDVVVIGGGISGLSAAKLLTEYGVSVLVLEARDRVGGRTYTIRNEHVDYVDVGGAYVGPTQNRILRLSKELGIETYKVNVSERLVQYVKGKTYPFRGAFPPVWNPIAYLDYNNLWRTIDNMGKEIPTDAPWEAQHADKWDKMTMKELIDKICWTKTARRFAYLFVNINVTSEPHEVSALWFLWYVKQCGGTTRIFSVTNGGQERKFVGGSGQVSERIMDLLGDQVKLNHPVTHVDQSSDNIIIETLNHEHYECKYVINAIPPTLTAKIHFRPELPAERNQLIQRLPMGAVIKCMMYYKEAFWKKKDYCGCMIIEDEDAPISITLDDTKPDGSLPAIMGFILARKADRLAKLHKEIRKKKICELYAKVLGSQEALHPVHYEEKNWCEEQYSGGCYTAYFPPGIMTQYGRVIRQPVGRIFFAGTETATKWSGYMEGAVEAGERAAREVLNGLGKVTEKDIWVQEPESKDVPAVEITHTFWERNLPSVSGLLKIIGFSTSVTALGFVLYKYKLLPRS
Experimental: Methods—Enzyme Assays: Enzymatic activity was determined by measuring either the consumption of substrate or production of product over time. For MAO-A (Sigma), enzyme and test compound were preincubated for 15 minutes at 37° C. before substrate addition. The reaction was initiated by addition of kynuramine and incubated at 37° ° C. for 30 minutes. The reaction was terminated by addition of NaOH. The amount of 4-hydroxyquinoline formed was determined through spectrofluorimetric readout with the emission detection at 380 nm and excitation wavelength 310 nm.

[12] = biological target: T12, ADRA2A (Homo sapiens, UniProt P08913); experiment: In vitro functional activity, ADRA2A antagonist mode; assay type: cell-based
T12 construct: expressed in transfected cells
T12 sequence (P08913 1-465): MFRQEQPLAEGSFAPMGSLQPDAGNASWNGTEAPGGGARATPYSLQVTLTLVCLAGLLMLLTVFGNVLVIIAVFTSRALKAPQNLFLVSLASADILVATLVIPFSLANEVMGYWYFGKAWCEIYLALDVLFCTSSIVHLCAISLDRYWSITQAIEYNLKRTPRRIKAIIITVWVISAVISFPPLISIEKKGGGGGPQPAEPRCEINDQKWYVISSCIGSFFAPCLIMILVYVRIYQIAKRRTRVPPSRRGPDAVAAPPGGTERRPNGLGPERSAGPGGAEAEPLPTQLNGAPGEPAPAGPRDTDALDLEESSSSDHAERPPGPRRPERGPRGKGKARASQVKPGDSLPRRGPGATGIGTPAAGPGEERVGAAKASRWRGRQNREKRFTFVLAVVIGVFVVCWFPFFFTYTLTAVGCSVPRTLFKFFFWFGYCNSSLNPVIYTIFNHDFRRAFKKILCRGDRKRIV
Experimental: as §4

[13] = biological target: T13, hERG (Homo sapiens, UniProt Q12809); experiment: FLIPR membrane potential ion channel assay, hERG blocker; assay type: cell-based
T13 construct: expressed in transfected cells
T13 sequence (Q12809 whole entry): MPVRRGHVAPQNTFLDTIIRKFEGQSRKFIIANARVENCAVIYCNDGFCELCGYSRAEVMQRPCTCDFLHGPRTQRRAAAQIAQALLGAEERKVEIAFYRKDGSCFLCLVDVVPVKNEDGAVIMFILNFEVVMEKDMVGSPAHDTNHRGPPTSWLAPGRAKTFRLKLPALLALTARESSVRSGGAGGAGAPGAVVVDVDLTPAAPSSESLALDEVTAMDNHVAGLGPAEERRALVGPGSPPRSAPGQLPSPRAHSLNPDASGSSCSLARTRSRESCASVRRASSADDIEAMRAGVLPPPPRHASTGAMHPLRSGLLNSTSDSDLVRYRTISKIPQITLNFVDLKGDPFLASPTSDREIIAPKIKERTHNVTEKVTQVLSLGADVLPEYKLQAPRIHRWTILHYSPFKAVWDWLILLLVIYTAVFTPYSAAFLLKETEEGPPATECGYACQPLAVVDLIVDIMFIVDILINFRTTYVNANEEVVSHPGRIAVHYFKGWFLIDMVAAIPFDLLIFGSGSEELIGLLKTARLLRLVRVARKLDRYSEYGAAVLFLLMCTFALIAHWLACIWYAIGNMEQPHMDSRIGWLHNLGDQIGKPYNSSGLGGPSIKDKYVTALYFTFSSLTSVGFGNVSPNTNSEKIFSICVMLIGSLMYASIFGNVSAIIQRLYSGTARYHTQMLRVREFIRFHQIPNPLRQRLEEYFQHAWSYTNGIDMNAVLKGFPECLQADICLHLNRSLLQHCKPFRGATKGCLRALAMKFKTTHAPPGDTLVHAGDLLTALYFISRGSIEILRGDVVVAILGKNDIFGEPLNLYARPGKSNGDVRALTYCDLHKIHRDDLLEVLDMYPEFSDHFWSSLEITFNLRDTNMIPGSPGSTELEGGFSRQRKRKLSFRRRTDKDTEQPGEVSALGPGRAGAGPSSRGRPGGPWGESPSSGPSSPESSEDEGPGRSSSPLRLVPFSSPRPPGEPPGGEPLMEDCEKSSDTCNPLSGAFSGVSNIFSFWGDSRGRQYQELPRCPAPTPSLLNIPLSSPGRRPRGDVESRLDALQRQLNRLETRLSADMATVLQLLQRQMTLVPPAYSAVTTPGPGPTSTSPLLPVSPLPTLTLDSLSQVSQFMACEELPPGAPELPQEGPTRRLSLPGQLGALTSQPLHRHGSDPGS
Experimental: as §7, §8, §9, §10

[14] = biological target: T14, NAV1.5 (Homo sapiens, UniProt Q14524); experiment: FLIPR membrane potential ion channel assay, NAV1.5 blocker; assay type: cell-based
T14 construct: expressed in transfected cells
Experimental: as §7, §8, §9, §10

[15] = biological target: T15, DRD2S (Homo sapiens, UniProt P14416); experiment: HitHunter cAMP assay, DRD2S agonist mode; assay type: cell-based
T15 construct: expressed in transfected cells
T15 sequence (P14416 1-414 isoform P14416-2): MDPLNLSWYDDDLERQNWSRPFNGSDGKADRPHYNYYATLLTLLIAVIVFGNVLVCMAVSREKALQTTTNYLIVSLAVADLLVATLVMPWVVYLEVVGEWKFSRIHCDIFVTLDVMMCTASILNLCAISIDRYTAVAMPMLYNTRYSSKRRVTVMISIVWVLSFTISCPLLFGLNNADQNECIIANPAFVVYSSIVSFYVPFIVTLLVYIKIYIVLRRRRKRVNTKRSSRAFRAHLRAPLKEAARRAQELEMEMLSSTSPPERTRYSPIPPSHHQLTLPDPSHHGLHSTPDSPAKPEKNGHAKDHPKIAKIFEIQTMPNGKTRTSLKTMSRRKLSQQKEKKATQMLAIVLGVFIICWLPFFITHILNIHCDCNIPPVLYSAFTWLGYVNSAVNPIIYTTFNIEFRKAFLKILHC
Experimental: as §4
Compound activity was analyzed using CBIS data analysis suite (ChemInnovation, CA). For Gs agonist mode assays, percentage activity was calculated using the following formula: % Activity=100%×(mean RLU of test sample−mean RLU of vehicle control)/(mean RLU of MAX control−mean RLU of vehicle control).
For Gi agonist mode assays, percentage activity was calculated using the following formula: % Activity=100%×(1−(mean RLU of test sample−mean RLU of MAX control)/(mean RLU of vehicle control−mean RLU of MAX control)).

[16] = biological target: T3, HTR2B; experiment: Calcium mobilization assay, HTR2B antagonist mode; assay type: cell-based
Experimental: Activation of the GPCR results in the release of calcium from intracellular stores and an increase in dye fluorescence that can be measured.
Cell lines were expanded from freezer stocks and seeded into multi-well microplates. Then, the plates were incubated at 37° C. for an appropriate amount of time and loaded with Dye Loading buffer. To determine compound agonist activity, cells were incubated with the sample to induce a response, and HBSS/20 mM Hepes was added using a FLIPR Tetra (MDS). Activity was measured on a FLIPR Tetra. Calcium mobilization was monitored for 2 minutes.
To determine compound antagonist activity, cells were pre-incubated with the sample followed by an post-incubation administration of the compound with 3×EC80 agonist using FLIPR. Compound antagonist activity was measured on a FLIPR Tetra (MDS) and calcium mobilization was monitored for 2 minutes.
For antagonist mode assays, percentage inhibition was calculated using the following formula: % Inhibition=100%×(1−(mean RFU of test sample−mean RFU of vehicle control)/(mean RFU of EC80 control−mean RFU of vehicle control)).

[17] = biological target: T10, HTR2A; experiment: Calcium mobilization assay, HTR2A agonist mode; assay type: cell-based; conditions: for agonist activity at HTR2A: agonist mode
Experimental: as §5

[18] = biological target: T16, NET (Homo sapiens, UniProt P23975); experiment: Neurotransmitter transporter uptake assay, NET blocker mode; assay type: cell-based
T16 construct: expressed in transfected cells
T16 sequence (P23975 whole entry): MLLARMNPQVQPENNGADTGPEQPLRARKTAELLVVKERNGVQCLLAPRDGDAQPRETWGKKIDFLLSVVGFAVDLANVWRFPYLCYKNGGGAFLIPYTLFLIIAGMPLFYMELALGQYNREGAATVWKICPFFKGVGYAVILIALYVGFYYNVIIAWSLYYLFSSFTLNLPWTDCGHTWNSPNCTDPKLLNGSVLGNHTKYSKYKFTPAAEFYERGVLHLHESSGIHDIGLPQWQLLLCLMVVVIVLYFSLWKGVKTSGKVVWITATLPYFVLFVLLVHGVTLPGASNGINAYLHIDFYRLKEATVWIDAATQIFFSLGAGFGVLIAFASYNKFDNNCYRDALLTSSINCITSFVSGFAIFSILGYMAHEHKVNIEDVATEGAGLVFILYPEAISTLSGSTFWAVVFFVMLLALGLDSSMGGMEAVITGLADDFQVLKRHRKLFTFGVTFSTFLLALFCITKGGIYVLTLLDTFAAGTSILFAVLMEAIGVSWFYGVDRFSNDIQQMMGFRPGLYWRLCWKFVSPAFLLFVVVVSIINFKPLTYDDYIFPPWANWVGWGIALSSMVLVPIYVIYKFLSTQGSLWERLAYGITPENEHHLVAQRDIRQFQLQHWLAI
Experimental: as §1, §2, §3

T1 sequence (P31645 whole entry): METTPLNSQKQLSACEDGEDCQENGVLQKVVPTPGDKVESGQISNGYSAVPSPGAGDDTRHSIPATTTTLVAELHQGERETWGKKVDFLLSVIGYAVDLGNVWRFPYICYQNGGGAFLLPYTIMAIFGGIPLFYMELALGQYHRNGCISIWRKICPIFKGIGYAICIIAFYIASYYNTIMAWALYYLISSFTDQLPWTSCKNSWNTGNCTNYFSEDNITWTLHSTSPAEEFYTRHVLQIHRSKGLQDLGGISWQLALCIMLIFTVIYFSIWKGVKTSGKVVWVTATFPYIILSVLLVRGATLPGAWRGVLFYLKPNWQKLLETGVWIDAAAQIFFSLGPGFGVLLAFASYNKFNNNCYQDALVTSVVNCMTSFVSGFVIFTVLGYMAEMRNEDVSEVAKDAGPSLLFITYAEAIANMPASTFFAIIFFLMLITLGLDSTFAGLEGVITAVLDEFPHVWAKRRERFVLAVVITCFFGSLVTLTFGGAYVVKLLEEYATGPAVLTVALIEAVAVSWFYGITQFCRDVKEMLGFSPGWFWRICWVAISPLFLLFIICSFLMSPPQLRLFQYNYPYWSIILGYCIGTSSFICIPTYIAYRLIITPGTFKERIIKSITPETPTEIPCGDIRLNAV

SMILES	IC50 [1] [µM]	IC50 [2] [µM]	EC50 [3] [µM]	IC50 [4] [µM]	EC50 [5] [µM]	EC50 [6] [µM]	IC50 [7] [µM]	EC50 [8] [µM]	IC50 [9] [µM]	IC50 [10] [µM]	IC50 [11] [µM]	IC50 [12] [µM]	IC50 [13] [µM]	IC50 [14] [µM]	EC50 [15] [µM]	IC50 [16] [µM]	EC50 [17] [µM]	agonist activity at HTR2A [17]	IC50 [18] [µM]	agonistic activity for dopamine receptor D2 short isoform ([15]; agonist mode)	further results
C=CCN(CCc1c[nH]c2ccc(OC)cc12)C(C)C [ASR-3001, N-isopropyl-N-(2-(5-methoxy-1H-indol-3-yl)ethyl)prop-2-en-1-amine hydrochloride]	6.84	> 10	0.0874	> 10	0.642	0.0468	> 10	0.42	> 10	0.0646	> 10	> 10	> 10	> 10	> 10	0.0511	0.00985	potent agonist activity	> 10		
C=CCN(CCc1c(C)[nH]c2ccccc12)C(C)C [ASR-3002, N-isopropyl-N-(2-(2-methyl-1H-indol-3-yl)ethyl)prop-2-en-1-amine hydrochloride]	> 10	8.52	1.28	> 10	> 10	4.95	> 10	1.68	> 10	4.13	> 10	0.383	> 10	> 10	4.48	0.498	2.6	potent agonist activity	> 10	agonistic activity	
C=CCN(CCc1c[nH]c2ccccc12)C(C)C [ASR-3003, N-(2-(1H-indol-3-yl)ethyl)-N-isopropylprop-2-en-1-amine hydrochloride]	2.37	> 10	2.54	6.29	> 10	0.813	> 10	4.26	> 10	1.41	> 10	3.72	> 10	> 10	0.183	0.507	0.462	potent agonist activity	> 10	agonistic activity	antagonistic effects at histamine receptor H1 [4]: antagonistic effects; potency for DRD2S ([15]; agonist mode): nanomolar level
